Experimental data reported in patent publication US9663496B2, “AMPK-activating heterocyclic compounds and methods for using the same” (Rigel Pharmaceuticals, Inc., priority 2010, dated 2017).

Biological target: AMPK
Experiment: AMPK activation, enzyme-linked immunosorbent assay
Type: biochemical
Settings: EC50 for AMPK activation, ELISA
Outline: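 Compounds were tested for their capacity to activate the kinase using standard, commercially available kit reagents and procedures.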

Structure (SMILES) | EC50
COc1ccc(C(=O)C2CCN(C(=O)c3ccc(C(=O)NC4CCN(Cc5ccc(NC(C)=O)cc5)CC4)cn3)CC2)cc1 [Compound 401, N-(1-(4-acetamidobenzyl)piperidin-4-yl)-6-(4-(4-methoxybenzoyl)piperidine-1-carbonyl)nicotinamide] | 1000 to 5000 nM
COc1ccc(C(=O)C2CCN(C(=O)c3ccc(C(=O)NC4CCN(Cc5cccc(OC(F)(F)F)c5)CC4)cn3)CC2)cc1 [Compound 424, 6-(4-(4-methoxybenzoyl)piperidine-1-carbonyl)-N-(1-(3-(trifluoromethoxy)benzyl)piperidin-4-yl)nicotinamide] | < 500 nM
N#Cc1ccc(OC2CCN(C(=O)c3ccc(C(=O)N[C@H]4CC[C@@H](Oc5ccc(F)cc5)CC4)nc3)CC2)cc1 [Compound 303, 5-(4-(4-cyanophenoxy)piperidine-1-carbonyl)-N-((cis)-4-(4-fluorophenoxy)cyclohexyl)picolinamide] | < 500 nM
O=C(NC1CCN(Cc2cc(F)cc(F)c2)CC1)c1ccc(C(=O)N2CC[C@H](Oc3ccc(F)cc3)C2)cn1 [Compound 292, N-(1-(3,5-difluorobenzyl)piperidin-4-yl)-5-((S)-3-(4-fluorophenoxy)pyrrolidine-1-carbonyl)picolinamide] | < 500 nM
COc1ccc(CN2CCC(NC(=O)c3ccc(C(=O)N4CCC(Oc5ccc(S(C)(=O)=O)cc5)CC4)cn3)CC2)cc1 [Compound 202, N-(1-(4-methoxybenzyl)piperidin-4-yl)-5-(4-(4-(methylsulfonyl)phenoxy)piperidine-1-carbonyl)picolinamide] | < 500 nM
N#Cc1ccc(CN2CCC(NC(=O)c3ccc(NC4CCN(c5ccc(Cl)cc5)CC4)cn3)CC2)cc1 [Compound 139, 5-(1-(4-chlorophenyl)piperidin-4-ylamino)-N-(1-(4-cyanobenzyl)piperidin-4-yl)picolinamide] | < 500 nM
CS(=O)(=O)c1ccc(OC2CCN(C(=O)c3cnc(C(=O)NC4CCN(Cc5ccc(C#N)cc5)CC4)cn3)CC2)cc1 [Compound 218, N-(1-(4-cyanobenzyl)piperidin-4-yl)-5-(4-(4-(methylsulfonyl)phenoxy)piperidine-1-carbonyl)pyrazine-2-carboxamide] | < 500 nM
COc1ccc(CN2CCC(NC(=O)c3ccc(C(=O)N4CCC(C(=O)c5ccc(S(C)(=O)=O)cc5)CC4)nc3)CC2)cc1 [Compound 223, N-(1-(4-methoxybenzyl)piperidin-4-yl)-6-(4-(4-(methylsulfonyl)benzoyl)piperidine-1-carbonyl)nicotinamide] | 1000 to 5000 nM
O=C(Nc1ccc(Oc2ccc(F)cc2)nc1)c1ccc(C(=O)N2CCC(Oc3ccc(S(F)(F)(F)(F)F)cc3)CC2)nc1 [Compound 496, N-(6-(4-fluorophenoxy)pyridin-3-yl)-6-(4-(4-(pentafluorosulfanyl)phenoxy)piperidine-1-carbonyl)nicotinamide] | < 500 nM
O=C(Nc1ccc(Oc2ccc(F)cc2)nc1)c1ccc(C(=O)N2CCC(C(=O)c3ccc(F)c(F)c3)CC2)cn1 [Compound 330, 5-(4-(3,4-difluorobenzoyl)piperidine-1-carbonyl)-N-(6-(4-fluorophenoxy)pyridin-3-yl)picolinamide] | 500 to 1000 nM
CS(=O)(=O)c1ccc(C(=O)C2CCN(C(=O)c3ccc(C(=O)NC4CCN(Cc5ccc(F)cc5)CC4)cn3)CC2)cc1 [Compound 222, N-(1-(4-fluorobenzyl)piperidin-4-yl)-6-(4-(4-(methylsulfonyl)benzoyl)piperidine-1-carbonyl)nicotinamide] | 1000 to 5000 nM
COc1ccc(CN2CCC(NC(=O)c3ccc(C(=O)N4CCC(Oc5cccc(NC(=O)C6CC6)c5)CC4)nc3)CC2)cc1 [Compound 435, 6-(4-(3-(cyclopropanecarboxamido)phenoxy)piperidine-1-carbonyl)-N-(1-(4-methoxybenzyl)piperidin-4-yl)nicotinamide] | < 500 nM
O=C(NC1CCN(Cc2ccc(Cl)cc2)CC1)c1ccc(C(=O)N2CCN(Cc3ccc(F)cc3)CC2)cn1 [Compound 52, N-(1-(4-chlorobenzyl)piperidin-4-yl)-5-(4-(4-fluorobenzyl)piperazine-1-carbonyl)picolinamide] | < 500 nM
CC(=O)c1ccc(Oc2ccc(NC(=O)c3ccc(C(=O)N4CCN(c5ccc(S(C)(=O)=O)cc5)CC4)nc3)cn2)cc1 [Compound 487, N-(6-(4-acetylphenoxy)pyridin-3-yl)-6-(4-(4-(methylsulfonyl)phenyl)piperazine-1-carbonyl)nicotinamide] | 1000 to 5000 nM
COc1ccc(C(=O)C2CCN(C(=O)c3ccc(C(=O)N(C)C4CCN(Cc5ccc(OC(F)(F)F)cc5)CC4)cn3)CC2)cc1 [Compound 483, 6-(4-(4-methoxybenzoyl)piperidine-1-carbonyl)-N-methyl-N-(1-(4-(trifluoromethoxy)benzyl)piperidin-4-yl)nicotinamide] | < 500 nM
CC1(C)CN(C(=O)c2ccc(C(=O)NC3CCN(Cc4ccc(C#N)cc4)CC3)nc2)CCN1Cc1ccc(F)cc1 [Compound 125, N-(1-(4-cyanobenzyl)piperidin-4-yl)-5-(4-(4-fluorobenzyl)-3,3-dimethylpiperazine-1-carbonyl)picolinamide] | < 500 nM
CC(=O)c1ccc(OC2CCN(C(=O)c3ccc(C(=O)NC4CCN(Cc5ccc(C#N)cc5)CC4)nc3)CC2)cc1 [Compound 358, 5-(4-(4-acetylphenoxy)piperidine-1-carbonyl)-N-(1-(4-cyanobenzyl)piperidin-4-yl)picolinamide] | < 500 nM

Structure (SMILES) | EC50
O=C(NC1CCN(Cc2ccccc2)CC1)c1ccc(Nc2cccc(Oc3ccccc3)c2)cn1 [Compound 112, N-(1-benzylpiperidin-4-yl)-5-(3-phenoxyphenylamino) picolinamide] | 1000 to 5000 nM
N#Cc1ccc(CN2CCC(NC(=O)c3ccc(N4CCN(Cc5ccc(F)cc5)CC4)nn3)CC2)cc1 [Compound 491, N-(1-(4-cyanobenzyl)piperidin-4-yl)-6-(4-(4-fluorobenzyl)piperazin-1-yl)pyridazine-3-carboxamide] | 1000 to 5000 nM
CS(=O)(=O)c1ccc(OC2CCN(C(=O)c3ccc(C(=O)NC4CCN(Cc5ccc(F)cc5)CC4)nc3)CC2)cc1 [Compound 226, N-(1-(4-fluorobenzyl)piperidin-4-yl)-5-(4-(4-(methylsulfonyl)phenoxy)piperidine-1-carbonyl)picolinamide] | < 500 nM
N#Cc1ccc(CN2CCC(NC(=O)c3ccc(C(=O)N4CCC(Oc5ccc(F)c(F)c5)CC4)cn3)CC2)cc1 [Compound 158, N-(1-(4-cyanobenzyl)piperidin-4-yl)-5-(4-(3,4-difluorophenoxy)piperidine-1-carbonyl)picolinamide] | < 500 nM
N#Cc1ccc(CN2CCC(NC(=O)c3ccc(C(=O)N4CCN(C(=O)C5CCCCC5)CC4)cn3)CC2)cc1 [Compound 89, N-(1-(4-cyanobenzyl)piperidin-4-yl)-5-(4-(cyclohexanecarbonyl)piperazine-1-carbonyl)picolinamide] | 1000 to 5000 nM
CS(=O)(=O)c1ccc(OC2CCN(C(=O)c3ccc(C(=O)NC4CCC(Oc5ccc(C#N)cc5)CC4)cn3)CC2)cc1 (stereo not drawn) [Compound 398, N-(4-(4-cyanophenoxy)cyclohexyl)-6-(4-(4-(methylsulfonyl)phenoxy)piperidine-1-carbonyl)nicotinamide] | < 500 nM
O=C(N[C@@H]1CCN(Cc2ccncc2)C[C@@H]1F)c1ccc(C(=O)N2CCN(Cc3ccc(F)cc3)CC2)cn1 (relative stereo) [Compound 104, N-(cis-3-fluoro-1-(pyridin-4-ylmethyl)piperidin-4-yl)-5-(4-(4-fluorobenzyl)piperazine-1-carbonyl)picolinamide] | < 500 nM
COc1ccc(C(=O)C2CCN(C(=O)c3ccc(C(=O)NC4CCN(Cc5ccc(F)cc5)CC4)cn3)CC2)cc1 [Compound 317, N-(1-(4-fluorobenzyl)piperidin-4-yl)-6-(4-(4-methoxybenzoyl)piperidine-1-carbonyl)nicotinamide] | < 500 nM
COc1ccc(C(=O)C2CCN(C(=O)c3ccc(C(=O)NC4CCN(Cc5ccc(C#N)cc5)CC4(F)F)cn3)CC2)cc1 (stereo not drawn) [Compound 498, N-(1-(4-cyanobenzyl)-3,3-difluoropiperidin-4-yl)-6-(4-(4-methoxybenzoyl)piperidine-1-carbonyl)nicotinamide] | < 500 nM
O=C(Nc1ccc(Oc2ccc(F)cc2)nc1)c1ccc(C(=O)N2CCC(C(=O)c3ccc(F)cc3)CC2)cn1 [Compound 272, 5-(4-(4-fluorobenzoyl)piperidine-1-carbonyl)-N-(6-(4-fluorophenoxy)pyridin-3-yl)picolinamide] | < 500 nM
COc1ccc(CN2CCC(N(C)C(=O)c3ccc(C(=O)N4CCC(C(=O)c5ccc(OC)cc5)CC4)nc3)CC2)cc1 [Compound 484, 6-(4-(4-methoxybenzoyl)piperidine-1-carbonyl)-N-(1-(4-methoxybenzyl)piperidin-4-yl)-N-methylnicotinamide] | < 500 nM
COc1ccc(C(=O)C2CCN(C(=O)c3ccc(C(=O)NC4CCN(Cc5ccc(C#N)cc5)CC4)nn3)CC2)cc1 [Compound 387, N-(1-(4-cyanobenzyl)piperidin-4-yl)-6-(4-(4-methoxybenzoyl)piperidine-1-carbonyl)pyridazine-3-carboxamide] | < 500 nM
O=C(Nc1cccc(-c2ccccc2)c1)c1ccc(C(=O)N2CCN(Cc3ccc(F)cc3)CC2)cn1 [Compound 12] | 5000 to 10000 nM
COc1ccc(OC2CCN(C(=O)c3ccc(C(=O)NC4CCN(Cc5ccc(C#N)cc5)CC4)cn3)CC2)c(N)c1 [Compound 384, 6-(4-(2-amino-4-methoxyphenoxy)piperidine-1-carbonyl)-N-(1-(4-cyanobenzyl)piperidin-4-yl)nicotinamide] | 500 to 1000 nM
N#Cc1ccc(CN2CCC(NC(=O)c3ccc(C(=O)N4CCC(Oc5ccc(NC(=O)C6CC6)cc5)CC4)nc3)CC2)cc1 [Compound 409, N-(1-(4-cyanobenzyl)piperidin-4-yl)-6-(4-(4-(cyclopropane-carboxamido)phenoxy)piperidine-1-carbonyl)nicotinamide] | < 500 nM
O=C(NC1CCN(Cc2cc(F)cc(F)c2)CC1)c1ccc(C(=O)N2CC(OCc3ccc(F)cc3)C2)cn1 [Compound 308, N-(1-(3,5-difluorobenzyl)piperidin-4-yl)-5-(3-(4-fluorobenzyloxy)azetidine-1-carbonyl)picolinamide] | < 500 nM
